In patent US20110207697A1, “XANTHOHUMOL COMPOSITIONS AND METHODS FOR TREATING SKIN DISEASES OR DISORDERS” (Betal, LLC, priority 2008, published 2011):

How the values were obtained:
[1] = ORAC-Total (ORAClipo + ORAChydro); conditions: ORAClipo + ORAChydro
Description: An ORAC method for lipophilic antioxidants was further developed and validated using fluorescein as the fluorescent probe (Prior et al. 2003 J. Agric. Food Chem. 51: 3273-3279). This method has the advantage that similar assay conditions and standards can be used for both hydrophilic and lipophilic antioxidant components, such that the two values can be added together to obtain a total antioxidant capacity. In the present work, the ORAC value is expressed as the sum of values of both the water-soluble and fat-soluble parts. Green tea catechins (Polyphenon 60) were used as the control with the highest ORAC value among edible plants. Vitamin C and vitamin E were used as controls for water- and fat-soluble molecules, respectively. […] The SOAC scores are not included in this figure; ORAC values used are the sum of lipophilic and hydrophilic results. For each assay category, scaling was made logarithmic so that the plot on the chart resembles the associated rating. […] The larger the spatial area, the higher the overall antioxidative capacity. […] Both hydrophilic and lipophilic oxygen radical absorbance capacity (ORAC) assays were carried out at Brunswick Laboratory (Wareham, Mass.) based on the modified ORACfl method reported by Ou et al. (2001 J. Agric. Food Chem. 49: 4619-4626, 2002 J. Agr. Food Chem. 50: 3122-3128). Trolox, a water-soluble vitamin E analog, was used as the calibration standard. The data are expressed as mmole of Trolox equivalents per gram (mmol TE/g). The acceptable precision of the ORAC assay is a 15% relative standard deviation. Caffeic acid was used as the calibration standard. Hydroxyl radical ORAC (HOR-AC) is expressed as mmole caffeic acid equivalent per gram (mmol CAE/g). Trolox was used as the calibration standard. The peroxyl nitrite ORAC (NORAC) result is expressed as mmol TE/g. Alpha-tocopherol (vitamin E) was used as the calibration standard, and the singlet oxygen absorbance capacity (SOAC) result is expressed as mmole a-tocopherol equivalent (mmol VtE) per gram (Aubry et al. 1989). The abbreviation for the 1,1-diphenyl-2-picrylhydrazyl radical is DPPH. Radical-scavenging activity was measured by the change in absorbance at 517 nm with the DPPH result expressed as mmol TE/g. Similarly, FRAP is an abbreviation for the ferric reducing antioxidative power method, which utilizes chemical conversion of the yellow Fe 3+-2,4,6-tripyridyl s-triazine (TPTZ) complex to the blue Fe 2+-TPTZ complex by electron donation under acidic conditions (Okada and Okada 1998 J. Agric. Food Chem. 46: 401-406). The FRAP result is expressed as mmol TE/g (Ou et al. 2002b). Superoxide dismutase (SOD) was used as a calibration standard; the SOD result is expressed as kilo unit SOD equivalent (kunitSODeq) per gram.

[2] = Lipophilic oxygen radical absorbance capacity (ORAC-L); conditions: lipid soluble antioxidant capacity; expressed as mmol TE/g; — = No activity detected
Description: Thus the ORAC method has become a widely used method for assessing antioxidant capacity in biological samples and foods. However, because of its inability to measure both hydrophilic and lipophilic antioxidants, the method has its limitations. An ORAC method for lipophilic antioxidants was further developed and validated using fluorescein as the fluorescent probe (Prior et al. 2003 J. Agric. Food Chem. 51: 3273-3279). […] In the present work, the ORAC value is expressed as the sum of values of both the water-soluble and fat-soluble parts. […] Both hydrophilic and lipophilic oxygen radical absorbance capacity (ORAC) assays were carried out at Brunswick Laboratory (Wareham, Mass.) based on the modified ORACfl method reported by Ou et al. (2001 J. Agric. Food Chem. 49: 4619-4626, 2002 J. Agr. Food Chem. 50: 3122-3128). Trolox, a water-soluble vitamin E analog, was used as the calibration standard. The data are expressed as mmole of Trolox equivalents per gram (mmol TE/g). […] Hydroxyl radical ORAC (HOR-AC) is expressed as mmole caffeic acid equivalent per gram (mmol CAE/g). […] The peroxyl nitrite ORAC (NORAC) result is expressed as mmol TE/g. […] Radical-scavenging activity was measured by the change in absorbance at 517 nm with the DPPH result expressed as mmol TE/g. […] The FRAP result is expressed as mmol TE/g (Ou et al. 2002b).

[3] = Singlet oxygen absorbance capacity (SOAC); conditions: expressed as mmol VtE/g
Description: [table] Alpha-tocopherol (vitamin E) was used as the calibration standard, and the SOAC result is expressed as mmol VtE/g. The higher the SOAC score, the higher the singlet oxygen-quenching capacity. […] Singlet oxygen has been postulated to be a highly reactive and toxic intermediate against skin. It is known that the acne-causing bacterium P. acnes naturally produces high amounts of intracellular porphyrins, mostly coproporphyrin (Ashkenazi et al. 2003). Singlet oxygen can be generated on the skin surface from P. acnes porphyrins under sunlight and induce serious skin damage ([…] et al. 1996 Biochem. Biophys. Res. Commun. 223: 578-582). Various skin disorders progress through a singlet oxygen-dependent mechanism, including acne, atopic dermatitis, and skin aging. Both hydrophilic and lipophilic oxygen radical absorbance capacity (ORAC) assays were carried out at Brunswick Laboratory (Wareham, Mass.) based on the modified ORACfl method reported by Ou et al. (2001 J. Agric. Food Chem. 49: 4619-4626, 2002 J. Agr. Food Chem. 50: 3122-3128). Trolox, a water-soluble vitamin E analog, was used as the calibration standard. The data are expressed as mmole of Trolox equivalents per gram (mmol TE/g). The acceptable precision of the ORAC assay is a 15% relative standard deviation. Caffeic acid was used as the calibration standard. Hydroxyl radical ORAC (HOR-AC) is expressed as mmole caffeic acid equivalent per gram (mmol CAE/g). Trolox was used as the calibration standard. The peroxyl nitrite ORAC (NORAC) result is expressed as mmol TE/g. Alpha-tocopherol (vitamin E) was used as the calibration standard, and the singlet oxygen absorbance capacity (SOAC) result is expressed as mmole a-tocopherol equivalent (mmol VtE) per gram (Aubry et al. 1989). […] Radical-scavenging activity was measured by the change in absorbance at 517 nm with the DPPH result expressed as mmol TE/g. […] The FRAP result is expressed as mmol TE/g (Ou et al. 2002b). Superoxide dismutase (SOD) was used as a calibration standard; the SOD result is expressed as kilo unit SOD equivalent (kunitSODeq) per gram.

| Compound | ORAC-Total (Trolox equivalent) [1] | ORAC-L (Trolox equivalent) [2] | SOAC (Vitamin E equivalent) [3] |
| --- | --- | --- | --- |
| O=C1O[C@H]([C@@H](O)CO)C(O)=C1O [Vitamin C, reference compound] | 1.4 Trolox equivalent | – | – |
| Cc1c(C)c2c(c(C)c1O)CC[C@@](C)(CCC[C@H](C)CCC[C@H](C)CCCC(C)C)O2 [Vitamin E, Alpha-tocopherol, reference compound] | 0.75 Trolox equivalent | 0.75 Trolox equivalent | 1.0 Vitamin E equivalent |
